Results from publication PMC9036822 (Journal of medicinal chemistry, 2021).
Entries after “also recorded” stand apart in the source; their conditions may differ. Read-outs that look alike come from different tables or passages of the source.

Key:
[1] = biological target: PRMT5:WDR77 hetero-octameric complex (Homo sapiens, UniProt O14744); assay: Fluorescence polarization; type: binding; conditions: for inhibition of PRMT5-PBM peptide binding (in words): FP assay
[2] = biological target: PRMT5:WDR77 complex (Homo sapiens, UniProt O14744); assay: SPR competition assay, full-length pICln titrated on pre-incubated PRMT5:WDR77; type: binding; conditions: PRMT5 pre-incubated with 2 μM compound overnight at 4C
[3] = biological target: PRMT5 C278A mutant (Homo sapiens, UniProt O14744, C278A); assay: FP competition assay with C278A mutant PRMT5
[4] = test system: symmetric arginine dimethylation levels in MTAP−/− HCT116 cells; assay: Western blot of total symmetric arginine dimethylation; type: cell-based; conditions: 25 μM
[5] = biological target: PRMT5 (Homo sapiens, UniProt O14744); assay: Target engagement in cells; type: cell-based; conditions: Expi293 cells, 6 hours, maximum labeling
[6] = biological target: PRMT5-RIOK1 complex (Homo sapiens, UniProt O14744); assay: PRMT5-RIOK1 NanoBiT assay in permeabilized cells; type: cell-based
PRMT5-RIOK1 complex, sequence (O14744 whole entry): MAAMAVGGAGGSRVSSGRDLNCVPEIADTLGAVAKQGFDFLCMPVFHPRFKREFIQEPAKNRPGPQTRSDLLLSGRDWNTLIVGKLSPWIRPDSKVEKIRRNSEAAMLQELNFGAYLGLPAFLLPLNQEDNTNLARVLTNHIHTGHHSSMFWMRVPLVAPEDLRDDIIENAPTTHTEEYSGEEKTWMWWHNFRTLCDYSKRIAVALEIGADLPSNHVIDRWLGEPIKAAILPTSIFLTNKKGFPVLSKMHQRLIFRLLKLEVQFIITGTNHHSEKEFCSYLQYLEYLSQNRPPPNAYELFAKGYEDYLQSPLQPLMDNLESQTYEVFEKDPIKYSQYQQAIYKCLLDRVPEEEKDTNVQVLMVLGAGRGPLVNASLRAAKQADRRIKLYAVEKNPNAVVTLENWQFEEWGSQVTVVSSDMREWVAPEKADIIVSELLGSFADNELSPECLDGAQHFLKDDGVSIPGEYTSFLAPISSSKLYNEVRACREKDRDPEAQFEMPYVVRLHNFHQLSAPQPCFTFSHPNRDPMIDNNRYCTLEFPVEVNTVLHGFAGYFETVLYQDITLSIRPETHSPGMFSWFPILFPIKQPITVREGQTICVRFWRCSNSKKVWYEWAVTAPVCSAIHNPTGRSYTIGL
PRMT5-RIOK1 complex, sequence (Q9BQA1 whole entry partner): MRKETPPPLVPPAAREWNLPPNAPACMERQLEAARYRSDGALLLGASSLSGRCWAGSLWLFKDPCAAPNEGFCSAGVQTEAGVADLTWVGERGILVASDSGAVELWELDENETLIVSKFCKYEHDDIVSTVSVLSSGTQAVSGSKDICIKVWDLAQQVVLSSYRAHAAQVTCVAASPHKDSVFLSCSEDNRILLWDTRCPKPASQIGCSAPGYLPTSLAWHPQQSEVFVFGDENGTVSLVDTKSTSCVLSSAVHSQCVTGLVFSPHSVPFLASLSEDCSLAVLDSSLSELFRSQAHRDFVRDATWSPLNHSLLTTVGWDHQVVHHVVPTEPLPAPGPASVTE

PRMT5:WDR77 hetero-octameric complex, sequence (O14744 whole entry): as the sequence (O14744 whole entry) above
PRMT5:WDR77 hetero-octameric complex, sequence (Q9BQA1 whole entry partner): as the sequence (Q9BQA1 whole entry partner) above
PRMT5 C278A mutant, sequence (O14744 whole entry C278A): as the sequence (O14744 whole entry) above, with C278A counted along it
PRMT5 C278A mutant, sequence (Q9BQA1 whole entry partner): as the sequence (Q9BQA1 whole entry partner) above
PRMT5, sequence (O14744 whole entry): as the sequence (O14744 whole entry) above
PRMT5, sequence (Q9BQA1 whole entry partner): as the sequence (Q9BQA1 whole entry partner) above
PRMT5:WDR77 complex, sequence (O14744 whole entry): as the sequence (O14744 whole entry) above
PRMT5:WDR77 complex, sequence (Q9BQA1 whole entry partner): as the sequence (Q9BQA1 whole entry partner) above

## Cc1ccc(NC(=O)Cn2ncc(Cl)c(Cl)c2=O)cc1S(=O)(=O)NCCc1ccccn1 [Compound 6, 2-(4,5-Dichloro-6-oxopyridazin-1(6H)-yl)-N-(4-methyl-3-(N-(2-(pyridin-2-yl)ethyl)sulfamoyl)phenyl)acetamide]
[1]
  IC50: 600 nM
[2]
  pICln binding to compound-treated PRMT5 (in words): greatly reduced binding response
[3]
  IC50: > 100000 nM

## CN(C)S(=O)(=O)N1CCCC(NC(=O)Cn2ncc(Cl)c(Cl)c2=O)C1 (stereo not drawn) [Compound 18, 2-(4,5-Dichloro-6-oxopyridazin-1(6H)-yl)-N-(1-(N,N-dimethylsulfamoyl)piperidin-3-yl)acetamide]
[1]
  inhibition of PRMT5-PBM peptide binding (in words): no ability to displace the PBM peptide

## Cc1ccc(NC(=O)[C@H](C)n2ncc(Cl)cc2=O)cc1S(=O)(=O)NCCc1ccccn1 [Compound 27, (2S)-2-(4-chloro-6-oxo-pyridazin-1-yl)-N-[4-methyl-3-[2-(2-pyridyl)ethylsulfamoyl]phenyl]propanamide]
[4]
  symmetric arginine dimethylation levels by WB (in words): reduction in symmetric arginine dimethylation levels; also recorded: reduces SDMA
[5]
  total PRMT5 protein labeled: ~ 40%

## Cc1ccc(N(C)C(=O)[C@H](C)n2ncc(Cl)cc2=O)cc1S(=O)(=O)NCCc1ccccn1 [Compound 29, (2S)-2-(4-chloro-6-oxo-pyridazin-1-yl)-N-methyl-N-[4-methyl-3-[2-(2-pyridyl)ethylsulfamoyl]phenyl]propanamide]
[6]
  disruption of PRMT5-RIOK1 complex, permeabilized cells (in words): inactive

## O=C(NC[C@H](O)CN1CCc2ccccc2C1)c1cc(NC2COC2)ncn1 [EPZ015666]
[1]
  inhibition of PRMT5-PBM peptide binding (in words): failed to inhibit this binding

## Nc1nc2cc(CC[C@H]3C[C@@H](n4ccc5c(N)ncnc54)[C@H](O)[C@@H]3O)ccc2cc1Br [JNJ-64619178]
[1]
  inhibition of PRMT5-PBM peptide binding (in words): failed to inhibit this binding

## CSC[C@H]1O[C@@H](n2cnc3c(N)ncnc32)[C@H](O)[C@@H]1O [MTA, 5′-S-Methyl-5′-thioadenosine]
[1]
  IC50: > 100000 nM

## competitor PBM peptide: pICln 13-mer control peptide displacing the fluorescently-labeled PBM probe (TVAGQFEDADVDH; Terminal caps are) [reference compound]
[1]; read-out: FP IC50 against WT PRMT5, Fig. 3b, WT vs C278A comparison
  IC50: 2000 nM
[3]; read-out: FP IC50 against C278A mutant, Fig. 3b, C278A PRMT5
  IC50: 1400 nM
